{"source": "patent US20230218589A1", "about": "“COMPOUND FOR PREVENTION OR TREATMENT OF A SKIN CANCER OR SKIN PRECANCER” (UNIQUEST PTY LTD, priority 2020, published 2023)", "key": {"[1]": {"system": "5117-RE (spindle cell sarcoma) cells", "assay": "Mouse back 5117-RE tumour model (spindle cell sarcoma, Kaposi sarcoma model)", "type": "in vivo", "protocol": "Tacrolimus diet: All customised mice diet was manufactured by Specialty Feeds (Perth, Wash.). Briefly, tacrolimus (MedChemExpress) was mixed with caster sugar and then incorporated into standard mouse diet. […] Food colouring was added to distinguish the drug. During the manufacturing process the pellets were air-dried overnight rather than dried in an oven in order to minimise the amount of heat applied. The final product was sealed in airtight bags and stored at 4° C. protected from light to ensure minimal degradation. Pellet volumes in feed hoppers were kept to a minimum and restocked every 3-4 days for the duration of the experiments.\nCompound 1 preparation: Compound 1 (Cmpd 1) was prepared at the beginning of each dosing week as a 1 or 2 mg/mL solution as required in 4% ethanol/0.2% Tween-80/PBS. Compound 1 solution was stored at 4° C. for up to one week.\nMouse back 5117-RE tumour model: Method as per the above section (Mouse back cSCC tumour model), with the following changes; BALBc mice were used, and 5117-RE cells were cultured and passaged for 1 week prior to tumour cell injection in RPMI media (Gibco) supplemented with 10% heat inactivated FBS (Gibco) and 1× Penicillin/Streptomycin/Glutamine (Gibco).\nDissociation of tumour cells for FACS analysis: To release cells from tumours, harvested tissue was cut into small fragments and digested for 60 min at 37° C. in RPMI media containing 2% FBS, 3 mg/mL collagenase D and 5 ug/mL DNase I. Tissues were then gently pressed through a 70 μm cell strainer to create a single-cell suspension. […]\nFACS analysis: Stained tumour dissociated cells were then washed twice, resuspended in FACS buffer and Flow cytometric analysis was performed using LSR Fortessa X20 (BD Biosciences) flow cytometers with FACSDiva. software (Becton Dickinson, Sparks, Md., USA). Data were exported and analyzed using FlowJo software (I'reestar Inc., Ashland, Oreg., USA).\nMice were injected sub-cutaneously with 1×10^6 5117-RE (spindle cell sarcoma) cells into the lower back and tumour size was monitored 3 times a week throughout the experiment. […]"}, "FKBP12 enzyme": {"target": "FKBP12 enzyme (Homo sapiens, UniProt P62942)", "sequence (P62942 whole entry, species assumed)": "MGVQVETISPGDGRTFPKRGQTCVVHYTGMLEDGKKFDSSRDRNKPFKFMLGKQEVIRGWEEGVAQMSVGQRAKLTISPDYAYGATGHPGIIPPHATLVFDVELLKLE", "assay": "TR-FRET assay, competition for tacrolimus (FK506) binding to FKBP12", "conditions": "8-point dilution 0.001 nM to 10 μM, 30 min room temperature", "quoted_text": "The FKBP12 enzyme used in the assay is tagged with a polyhistidine sequence. An anti-6xHis antibody, labelled with a fluorescent donor, F(d), binds the tagged enzyme. The enzyme ligand, FK506 is tagged with a fluorescent acceptor, F(a) and binds the enzyme. […] In the presence of a test inhibitor which competes for FK506, the complex is disrupt& and is no longer in close proximity, resulting in emission at wavelength A due to the F(d). […] The inhibitors were added to the master mix in the assay plate containing the enzyme/antibody/ligand complex, with a final detergent concentration of 0.005%. The reaction was incubated for 30 min at room temperature and then read on a SpectraMax M5 (Molecular Devices) at wavelengths A (615 nm) and B (665 nm). The ratio between light emission (wavelength B/A) is calculated and the blank subtracted values were plotted against the inhibitor concentration in Logio molar and fitted using one site Ki non-linear regression to determine the Kd of the bound test inhibitor."}, "[2]": {"assay": "Single dose pharmacokinetics after topical application to mouse ear", "type": "in vivo", "conditions": "single topical 10 μL of 3% solution in propylene glycol to ear, LOQ 3.5 ng/mL", "protocol": "The single dose pharmacokinetics of Compound 1 (Cmpd 1) was assessed by topical administration of the compound as a formulation in propylene glycol (3% concentration) applied once per day (QD) to one ear only of C57BL/6 female mice, 8 weeks of age (N=2 or 3 per timepoint; samples taken 1, 6 and 24 h post administration of Compound 1).\nCompound Application: Compound 1 (10 μL of a 3% solution in propylene glycol) was applied to mouse ears using a silicone brush. The brush was cleaned with distilled water and ethanol between applications. The vehicle solution was 100% propylene glycol.\nBlood processing: Cryovials were prepared containing 10 μL 0.5 M EDTA and labelled appropriately. Cardiac bleed was performed on mice and blood transferred to an Eppendorf tube. Blood (110 μL) was transferred immediately to a cryovial containing EDTA and well mixed to prevent clotting. The cryovial was placed on dry ice and transferred to a −80° C. freezer.\nEar processing: Before taking ears for pharmacokinetics the skin was cleaned with distilled water and dried with cotton balls/swab before doing 2 tape strips (one piece of tape per strip). The whole ear was removed from the mouse. The weight of the whole ear was recorded and placed into an appropriate cryovial which was placed on dry ice then transferred to a −80° C. freezer.\nSample processing: A LC/MS/MS based bioanalytical method was developed for the detection and quantification of Compound 1 in mouse blood and ears. Calibration standards and quality control samples were prepared by adding 2.5 μL of stock solutions of test compound of different concentrations into 25 μL of naïve mouse blood or ear homogenates. Control samples were prepared by spiking 2.5 μL, of water or acetonitrile into 25 μL of naïve mouse blood or ear homogenates. The blood or ear samples were transferred into polypropylene Eppendorf tubes. […] 20-40 μL of the supernatant was analysed by LCMS/MS, using the same instrument, column, Mobile phase A, Mobile phase B, gradient and other parameters as outlined above for the tumour sample processing."}}, "data": [{"smiles": "CC[C@@H]1/C=C(\\C)[C@@H](O)[C@H](C)C[C@H](OC)[C@H]2O[C@@](O)(C(=O)C(=O)N3CCCC[C@H]3C(=O)O[C@H](/C(C)=C/[C@@H]3CC[C@@H](O)[C@H](OC)C3)[C@H](C)[C@@H](O)CC1=O)[C@H](C)C[C@@H]2OC", "note": "[Compound 1, 17-Ethyl-1,14,20-trihydroxy-12-[2′-(4″-hydroxy-3″-methoxycyclohexyl)-1′-methylvinyl]-23,25-dimethoxy-13,19,21,27-tetramethyl-11,28-dioxa-4-azatricyclo-[22.3.1.0^4,9]octacos-18-ene-2,3,10,16-tetraone]", "values": [{"measurement": "tacrolimus dependent-tumour growth compared to the vehicle control", "setting": "[1]; BALBc mice, BID IT 40 μL of 2 mg/mL, after 10 days treatment, tacrolimus 150 ppm diet", "result": "significantly reduced"}, {"measurement": "percentage of TNF alpha+ CD8 T cells isolated from the tumour", "setting": "[1]; after 13 days treatment", "result": "significantly increased"}, {"measurement": "percentage of IFN gamma+ CD8 T cells isolated from the tumour", "setting": "[1]; after 13 days treatment, ex vivo stimulation with CD3/CD28", "result": "significantly increased"}, {"measurement": "Kd", "setting": "FKBP12 enzyme", "result": 2.8, "unit": "nM"}, {"measurement": "Concentration in blood", "setting": "[2]; 1 h", "result": "BLQ"}, {"measurement": "Concentration in blood", "setting": "[2]; 6 h", "result": "BLQ"}, {"measurement": "Concentration in blood", "setting": "[2]; 24 h", "result": "BLQ"}]}]}
